In ChEMBL document CHEMBL1155039, “Synthetic antimicrobial peptidomimetics with therapeutic potential” (J Med Chem, 2008):
Values after ≈ are worked out from the molar mass of the structure shown. Values joined by “and” are separate entries in the source; they are usually repeats but may differ in a detail not shown here. Identical values can stand only once. Active and inactive are the calls of the source. The rule behind the calls is not given here.

Columns and labels:
Pseudomonas aeruginosa = assay: Antibacterial activity against Pseudomonas aeruginosa ATCC 27853; type: functional
Staphylococcus aureus [1] = assay: Antibacterial activity against glycopeptide intermediate-resistant Staphylococcus aureus CCUG 43316; type: functional
Staphylococcus aureus [2] = assay: Antibacterial activity against methicillin-resistant Staphylococcus aureus ATCC 33591; type: functional
Escherichia coli [3] = assay: Antibacterial activity against Escherichia coli ATCC 25922 upto 150 ug/mL; type: functional, organism-based
Staphylococcus aureus [4] = assay: Antibacterial activity against Staphylococcus aureus ATCC 25923; type: functional
[5] = Toxicity in human erythrocytes assessed as hemolysis; type: cell-based, Erythrocyte
[6] = tested on: Staphylococcus epidermidis; assay: Antibacterial activity against methicillin-resistant Staphylococcus epidermidis ATCC 27626; type: functional
Escherichia coli [7] = assay: Antibacterial activity against Escherichia coli ATCC 25922; type: functional
[8] = Toxicity in human erythrocytes assessed as hemolysis upto 1000 ug/mL; type: cell-based; conditions: erythrocyte
Escherichia coli [9] = assay: Effect on outer membrane destabilization in Escherichia coli ML-35p at 128 ug/mL; type: functional, organism-based
[10] = Stability assessed as half life in human plasma; type: ADME, cell-free
[11] = Effect on permeability assessed as calcein release from 1-palmitoyl-2-oleoyl-sn-glycero-3-phosphoglycerol vesicle; type: physicochemical
Escherichia coli [12] = assay: Effect on inner membrane destabilization in Escherichia coli ML-35p at 256 ug/mL; type: functional, organism-based
Staphylococcus aureus [13] = assay: Antibacterial activity against Staphylococcus aureus ATCC 25923 at 8 times MIC after 30 mins; type: functional
Escherichia coli [14] = assay: Antibacterial activity against Escherichia coli ML-35p; type: functional
Plasma = assay: Stability assessed as degradation in human plasma upto 4 days; type: ADME, cell-free; conditions: 96 h

Row | SMILES | MIC (Pseudomonas aeruginosa) [µM] | MIC (Staphylococcus aureus [1]) [µM] | MIC (Staphylococcus aureus [2]) [µM] | Activity (Escherichia coli [3]) | MIC (Staphylococcus aureus [4]) [µM] | EC50 [5] [µM] | MIC [6] | MIC (Escherichia coli [7]) [µM] | Activity [8] | Activity (Escherichia coli [9]) | half-life [10] [h] | Activity [11] | Activity (Escherichia coli [12]) | CFU/ml (Staphylococcus aureus [13]) | MIC (Escherichia coli [14]) [µg/mL] | Activity (Plasma)
1 | CC(C)(C)c1cc(C(C)(C)C)c2[nH]c(C(C)(C)C)c(C[C@H](N)C(=O)N[C@@H](CCCNC(=N)N)C(N)=O)c2c1 | 57 (≈ 30.1 µg/mL) | 57 (≈ 30.1 µg/mL) | 28 (≈ 14.8 µg/mL) | inactive | 28 (≈ 14.8 µg/mL) | 578 | 14 µM (≈ 7.39 µg/mL) | – | – | – | – | – | – | – | – | –
2 | COC(=O)[C@H](CCCNC(=N)N)NC(=O)[C@H](N)Cc1c(C(C)(C)C)[nH]c2c(C(C)(C)C)cc(C(C)(C)C)cc12 | 92 (≈ 49.9 µg/mL) | 55 (≈ 29.9 µg/mL) | 28 (≈ 15.2 µg/mL) | inactive | 28 (≈ 15.2 µg/mL) | 503 | 14 µM (≈ 7.6 µg/mL) | – | – | – | – | – | – | – | – | –
3 | COC(=O)[C@H](CCCNC(=N)N)NC(=O)[C@@H](Cc1c(C(C)(C)C)[nH]c2c(C(C)(C)C)cc(C(C)(C)C)cc12)NC(=O)[C@@H](N)CCCNC(=N)N | 57 (≈ 39.8 µg/mL) | 21 (≈ 14.7 µg/mL) | 7.2 (≈ 5.03 µg/mL) | – | 7.2 (≈ 5.03 µg/mL) | – | 3.6 µM (≈ 2.52 µg/mL) | 72 (≈ 50.3 µg/mL) | Not Active | – | – | – | – | – | – | –
4 | CC(C)(C)c1cc(C(C)(C)C)c2[nH]c(C(C)(C)C)c(C[C@H](NC(=O)[C@@H](N)CCCNC(=N)N)C(=O)N[C@@H](CCCNC(=N)N)C(N)=O)c2c1 | 44 (≈ 30.1 µg/mL) | 22 (≈ 15 µg/mL) | 11 (≈ 7.52 µg/mL) | – | 11 (≈ 7.52 µg/mL) | – | 3.7 µM (≈ 2.53 µg/mL) | 88 (≈ 60.2 µg/mL) | Not Active | – | – | – | – | – | – | –
5 | CC(C)(C)c1cc(C(C)(C)C)c2[nH]c(C(C)(C)C)c(C[C@H](NC(=O)[C@@H](N)CCCCN)C(=O)N[C@@H](CCCNC(=N)N)C(N)=O)c2c1 | 76 (≈ 49.9 µg/mL) | 46 (≈ 30.2 µg/mL) | 23 (≈ 15.1 µg/mL) | – | 23 (≈ 15.1 µg/mL) | – | 3.8 µM (≈ 2.49 µg/mL) | 107 (≈ 70.2 µg/mL) | Not Active | – | – | – | – | – | – | –
6 | COC(=O)[C@H](CCCNC(=N)N)NC(=O)[C@H](Cc1c(C(C)(C)C)[nH]c2c(C(C)(C)C)cc(C(C)(C)C)cc12)NC(=O)[C@@H](N)CCCNC(=N)N | 21 (≈ 14.7 µg/mL) | 11 (≈ 7.69 µg/mL) | 3.6 (≈ 2.52 µg/mL) | – | 7.2 (≈ 5.03 µg/mL) | 1010 | 1 µg/mL and 1.4 µM | 29 (≈ 20.3 µg/mL) | – | Active | 2 | Dose-dependent effect | Active | 10000 | 32 (≈ 45.8 µM) | Stable
7 | COC(=O)[C@H](CCCNC(=N)N)NC(=O)[C@@H](N)Cc1c(C(C)(C)C)[nH]c2c(C(C)(C)C)cc(C(C)(C)C)cc12 | 55 (≈ 29.9 µg/mL) | 14 (≈ 7.6 µg/mL) | 9.2 (≈ 4.99 µg/mL) | – | 9.2 (≈ 4.99 µg/mL) | 451 | 4.6 µM (≈ 2.5 µg/mL) | 55 (≈ 29.9 µg/mL) | – | – | – | – | – | – | – | –
8 | CC(C)(C)c1cc(C(C)(C)C)c2[nH]c(C(C)(C)C)c(C[C@H](N)C(=O)N[C@@H](CCCNC(=N)N)C(=O)NCc3ccccc3)c2c1 | 12 (≈ 7.41 µg/mL) | 8.1 (≈ 5 µg/mL) | 4 (≈ 2.47 µg/mL) | – | 4 (≈ 2.47 µg/mL) | 97 | 4 µM (≈ 2.47 µg/mL) | 16 (≈ 9.89 µg/mL) | – | – | – | – | – | – | – | –
9 | CC(C)(C)c1cc(C(C)(C)C)c2[nH]c(C(C)(C)C)c(C[C@H](NC(=O)[C@@H](N)CCCNC(=N)N)C(=O)N[C@@H](CCCNC(=N)N)C(=O)NCc3ccccc3)c2c1 | 6.5 (≈ 5.03 µg/mL) | 3.2 (≈ 2.48 µg/mL) | 3.2 (≈ 2.48 µg/mL) | – | 3.2 (≈ 2.48 µg/mL) | 116 | 1.3 µM (≈ 1.01 µg/mL) | 9.7 (≈ 7.51 µg/mL) | – | – | – | – | – | – | – | –
